Experimental data taken from patent US11274079B2 (DALIAN INSTITUTE OF CHEMICAL PHYSICS, CHINESE ACADEMY OF …, priority 2018, dated 2022).

Key:
[1] = system: guinea pigs; assay: Acetylcholine chloride/histamine spray-induced asthma, incubation period; assay type: in vivo, guinea pig; details: 0.2 mM in normal saline sprayed 10 min, challenge after 10 min, recorded as 240 s if no convulsion and fall
Description: On the first day, guinea pigs are placed in a 38×38×38 cm (about 55 L) of home-made container with an atomizing nozzle having a diameter of about 3 cm above the side wall. Ultrasonic atomizer (YUWELL, model 402AI) is used to spray normal saline containing acetylcholine chloride (20 g/L) and histamine (1 g/L) for 15 s. The incubation period of asthma of guinea pigs (also is called asthma incubation period, which is the time from the end of the spray to asthma attack, extreme breathing difficulty until convulsion and fall) is recorded after the cessation of spraying. Animals with an incubation period of less than 120 s are qualified sensitive animals.
2. Experimental Processes
On the second day, the qualified animals are selected for experiments, wherein one group (comprising 4 guinea pigs) is used as the control group, one group (comprising 4 guinea pigs) is experimented with positive medicine […] and one group (comprising 10 guinea pigs) is experimented with the drug to be tested. The animals are placed in a container, and sprayed with normal saline, tiotropium bromide and the compound to be tested. Both tiotropium bromide and the compound to be tested are soluble in normal saline at a concentration of 0.2 mM. After spraying for 10 min, the guinea pigs are taken out and put into another container of the same size. After 10 min, normal saline containing acetylcholine chloride (20 g/L) and histamine (1 g/L) is sprayed into the container for 15 s. The incubation periods of asthma of the guinea pigs are observed and recorded. If there is no convulsion and fall after 240 s, the incubation period is recorded as 240 s.

[2] = system: isolated tracheal smooth muscle; assay: Carbachol-induced contraction of isolated tracheal strip; details: Cavia porcellus, read-out: IC50, diastolic effect on isolated tracheal smooth muscle
Description: 1. Experimental Materials
2. Preparation of Tracheal Strip
The guinea pig is put to death by hammering it on the head, the chest cavity is quickly opened, and trachea is carefully isolated. […] The connective tissue and fat around the trachea are gently removed, and the trachea segment is quickly suspended and cut into tracheal strips with a blade (2-3 mm in width and 20 mm in length). […] The upper end of the tracheal strip is connected to a muscle tension transducer, and the load is adjusted to 1.5 g. The biological signal processing system is used to record the changes in muscular tension of tracheal smooth muscle. The perfusate is replaced once every 15 min, and the experiment is started after the tension is stabilized for 1 h. After each experiment, the smooth muscle is rinsed 3 to 5 times, and the next experiment is carried out after stabilization to the baseline.
3. Effects of Compounds Tested on Contraction of Isolated Tracheal Strip in Guinea Pig
After incubation of isolated tracheal for 1 h, 10 μm/L of carbachol is added to induce the minimum concentration (the concentration obtained from the dose-effect curve of carbachol) of the maximum tracheal smooth muscle contraction, and the changes in tension of the tracheal strip within 5 min are recorded. When the tension of the tracheal smooth muscle reaches the highest point, the compounds tested with a concentration of 1 nm/L are added, and the changes in tension of the tracheal strip within 5 min are recorded. […] Then, the concentration difference is decreased, that is, the concentration is increased by three or four times to repeat the above administration, which makes the tension decrease continuously to the base value (initial load). The changes in tension of the tracheal stop within 5 min are recorded. The dose-effect relationship between the compounds tested and the contractile activity of the isolated tracheal smooth muscle in the guinea pig is obtained. The curve of the changes in tension of the tracheal smooth muscle in each group is recorded and the inhibition rate is calculated. After repeated experiments, IC50 value of each compound tested is calculated by taking points respectively.
The dose-effect relationship between solvent (DMSO) control group and the contractile activity of the isolated tracheal smooth muscle in the guinea pig is recorded. Inhibition Rate=(Tension before Administration−Tension after Administration)/Tension before Administration

[3] = molecular target: T1, M1 receptor (Homo sapiens, UniProt P11229); assay: DMR assay, antagonism of acetylcholine in CHO-K1 cells stably transfecting the M1 receptor; assay type: cell-based; details: CHO-K1-M1 cells, DMR, acetylcholine 1 μM, 1 h pretreatment, time point 5 min
T1 construct: expressed in transfected cells; host or cells: CHO-K1
T1 sequence (P11229 1-460): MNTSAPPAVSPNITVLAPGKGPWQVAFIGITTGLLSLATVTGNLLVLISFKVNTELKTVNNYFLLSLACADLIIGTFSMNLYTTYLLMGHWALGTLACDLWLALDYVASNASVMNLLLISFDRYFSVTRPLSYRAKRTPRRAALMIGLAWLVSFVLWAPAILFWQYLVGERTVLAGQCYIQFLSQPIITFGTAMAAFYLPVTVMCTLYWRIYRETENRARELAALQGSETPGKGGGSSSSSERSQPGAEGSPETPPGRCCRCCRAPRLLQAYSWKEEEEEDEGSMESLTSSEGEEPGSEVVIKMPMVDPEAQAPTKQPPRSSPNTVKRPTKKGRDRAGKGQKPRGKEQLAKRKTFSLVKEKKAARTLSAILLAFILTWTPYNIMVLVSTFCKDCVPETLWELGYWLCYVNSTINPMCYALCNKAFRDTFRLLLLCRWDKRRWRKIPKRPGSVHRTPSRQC
Description: (§1) The present invention relates to the antagonistic activity of the compound against the muscarinic receptor, which is primarily assessed by a cell-level dynamic mass redistribution (DMR) assay method. All tests are carried out on Epic platform, wherein the target model of the muscarinic receptor M1 is the CHO-K1 ceil model stably transfecting the M1 receptor, the target model of M3 is the HT-29 cell model endogenously highly expressing the M3 receptor, and the selected probe molecule is acetylcholine. Tire probe molecule acetylcholine is dissolved in water, while all other compounds are dissolved in DMSO.
(§2) The inoculated cell plate is placed in a cell incubator for culture for 12 h until the cell growth and fusion degree reaches about 95%, and the activity assay is carried out. The culture medium is sucked from the cultured ceils, the buffer salt specified by the test is added with a volume of 30 μL per orifice and is stabilized for 1 h. After the baseline is stable, a 2-min baseline is established, and different concentrations of compounds to be tested are added to test the cultured cells for 1 h. After the cells are pretreated with the compounds to be tested for 1 h, the 2-min baseline is re-established, and acetylcholine having a concentration of 1 μM is added to test the cultured cells for 1 h.

[4] = molecular target: T2, M3 receptor (Homo sapiens, UniProt P20309); assay: DMR assay, antagonism of acetylcholine in HT-29 cells endogenously expressing the M3 receptor; assay type: cell-based; details: HT-29 cells, DMR, acetylcholine 16 μM, 1 h pretreatment, time point 30 min
T2 construct: HT-29 cell model endogenously highly expressing the M3 receptor; endogenous in cells; host or cells: HT-29
T2 sequence (P20309 whole entry): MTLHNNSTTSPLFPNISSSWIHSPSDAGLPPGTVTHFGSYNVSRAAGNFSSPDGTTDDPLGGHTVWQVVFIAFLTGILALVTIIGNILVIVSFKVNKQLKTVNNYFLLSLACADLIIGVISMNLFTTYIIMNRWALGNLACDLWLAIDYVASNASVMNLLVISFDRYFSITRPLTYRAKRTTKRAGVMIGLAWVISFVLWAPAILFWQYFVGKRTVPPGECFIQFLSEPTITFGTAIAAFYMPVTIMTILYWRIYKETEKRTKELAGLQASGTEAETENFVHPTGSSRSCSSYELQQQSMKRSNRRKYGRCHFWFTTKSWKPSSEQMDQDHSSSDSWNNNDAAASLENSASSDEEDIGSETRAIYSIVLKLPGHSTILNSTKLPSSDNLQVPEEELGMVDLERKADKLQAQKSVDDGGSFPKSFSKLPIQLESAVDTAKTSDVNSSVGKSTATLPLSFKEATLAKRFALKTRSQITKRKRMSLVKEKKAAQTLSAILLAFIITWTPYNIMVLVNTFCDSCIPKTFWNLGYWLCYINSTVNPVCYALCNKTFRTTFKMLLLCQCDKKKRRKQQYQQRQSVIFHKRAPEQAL
Description: as §1
as §2, with “20” for “12”, “cells,” for “ceils,”, “h.” for “h. After the cells are pretreated with the compounds to be tested for 1 h, the 2-min baseline is re-established, and acetylcholine having a concentration of 1 μM is added to test the cultured cells for 1 h.”

SMILES | asthma incubation period [1] [s] | IC50 [2] [nM] | IC50 [3] [nM] | IC50 [4] [nM]
C[N+]1(C)[C@@H]2C[C@@H](OC(=O)C(O)(c3cccs3)c3cccs3)C[C@H]1[C@@H]1O[C@@H]12.[Br-] [Tiotropium Bromide, reference compound] | 238.9 ± 5.0 | 33 | – | –
Cc1ccc(O)c(C(CC2CCCC[N+]2(C)C)c2ccccc2)c1 (single isomer, unassigned) [I-4a-Br, 2-[2-(2-hydroxy-5-methyl-phenyl)-phenethyl]-N,N-dimethylpiperidine Bromide] | – | 13.3 | 36.2 ± 6.1 | 35.5 ± 13.9
Cc1ccc(O)c(C(CC2CCCC[N+]2(C)C)c2ccccc2F)c1 (centres unmarked) [I-7, 2-[2-(2-fluorophenyl)-2-(2-hydroxy-5-methyl-phenyl)-ethyl]-N,N-dimethylpiperidine Bromide] | – | 33.4 | 320 ± 20 | 103 ± 10
